From PubChem BioAssay AID1259411 (Chemical Carcinogenesis Research Information System (CCRIS), 2018) come the findings set out here.

Calls of active or inactive are those of the source. The rule behind the calls is not given here.

This data set deals with rodent carcinogenicity bioassays, tumor incidence. The data set can be described thus: CCRIS carcinogenicity studies. In a few lines: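 Archive of carcinogenicity, mutagenicity, tumor promotion and tumor inhibition results drawn from journals, NCI reports and other sources, expert-reviewed; covers 1985-2011 and is no longer updated.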

`c1ccc2c(c1)cc1ccc3cccc4ccc2c1c34`: the carcinogen call is “inactive; negative” (Species: FISH, Strain/Sex: MT. SHASTA RAINBOW TROUT/MALE, FEMALE, Route: TRANSCHORIONIC INJECTION, Dose: 0, 0.09, 0.9, 9 UG IN DMSO ADMINISTERED IN OVO APPROXIMATELY 2 DAYS PRIOR TO HATCHING (STUDY DURATION: 1 YR), Dose: 0, 0.09, 0.9, 9 UG IN DMSO ADMINISTERED IN OVO APPROXIMATELY 2 DAYS PRIOR TO HATCHING (STUDY DURATION: 1 YR)); “active; positive” (Species: FISH, Strain/Sex: MT. SHASTA RAINBOW TROUT/MALE, FEMALE, Route: TRANSCHORIONIC INJECTION, Dose: 0, 4.5, 9, 18 UG IN DMSO ADMINISTERED IN OVO APPROXIMATELY 2 DAYS PRIOR TO HATCHING, Dose: 0, 4.5, 9, 18 UG IN DMSO ADMINISTERED IN OVO APPROXIMATELY 2 DAYS PRIOR TO HATCHING, Tumor Site: Type of Lesion: LIVER: TUMOR); “active; positive” (Species: FISH, Strain/Sex: RAINBOW TROUT/MALE, FEMALE, Route: INTRAPERITONEAL, Dose: 0, 1 MG IN 0.4 ML PROPYLENE GLYCOL 1/MO FOR 12 MO BEGINNING AT 10 MO OF AGE (STUDY DURATION: 18 MO), Tumor Site: Type of Lesion: LIVER: CARCINOMA); “active; positive” (Species: FISH, Strain/Sex: RAINBOW TROUT/MALE, FEMALE, Route: ORAL, Dose: 0, 1000 PPM IN DIET FOR 18 MO (STUDY DURATION: 18 MO), Tumor Site: Type of Lesion: LIVER: CARCINOMA); “inactive; negative” (Species: FISH, Strain/Sex: SHEEPSHEAD MINNOW/MALE, FEMALE, Route: IMMERSION, Dose: 0, 2, 30, 200 PPB APPROXIMATE CONCENTRATIONS ADMINISTERED 1/WK FOR 6 OR 24 HR FOR 1 OR 2 WK (STUDY DURATION: 39 WK), Dose: 0, 2, 30); “active; positive” (Species: HAMSTER, Route: GAVAGE, Tumor Site: Type of Lesion: FORESTOMACH: PAPILLOMA, CARCINOMA). Besides, the carcinogen call is, setting by setting: (Species: HAMSTER, Route: INTRATRACHEAL, Tumor Site: Type of Lesion: LUNG) “active; positive”; (Species: HAMSTER, Route: ORAL, Dose: 500 PPM IN DIET 4 D/WK FOR UP TO 14 MO, Tumor Site: Type of Lesion: ESOPHAGUS, FORESTOMACH, INTESTINES, Tumor Site: Type of Lesion: ESOPHAGUS, FORESTOMACH, INTESTINES) “active; positive”; (Species: HAMSTER, Route: SUBCUTANEOUS, Dose: 2.5 MG, 3 MO, Tumor Site: Type of Lesion: INJECTION SITE: SARCOMA) “active; positive”; (Species: HAMSTER, Route: SUBCUTANEOUS, Tumor Site: Type of Lesion: INJECTION SITE: SARCOMA) “active; positive”; (Species: HAMSTER, Strain/Sex: MALE,FEMALE, Route: INTRATRACHEAL, Dose: 0.25-2 MG, 1/WK FOR 30 WK, Tumor Site: Type of Lesion: RESPIRATORY TRACT) “active; positive”; (Species: HAMSTER, Strain/Sex: SYRIAN/FEMALE, Route: INTRATRACHEAL, Dose: 0, 1 MG IN 0.1 ML PHOSPHATE BUFFER 15/WK FOR 4 MO (STUDY DURATION: 443 D), Tumor Site: Type of Lesion: TRACHEA: PAPILLOMA OR CARCINOMA) “active; positive”. Further, the carcinogen call was “active; positive” (Species: HAMSTER, Strain/Sex: SYRIAN/MALE,FEMALE, Route: SUBCUTANEOUS, Dose: 0.0005-80 MG, 10 DOSES, Tumor Site: Type of Lesion: INJECTION SITE: SARCOMA); “active; positive” (Species: HAMSTER, Strain/Sex: SYRIAN/MALE, Route: GAVAGE, Dose: 2-5 MG 2/WK FOR 1-11 MO, Tumor Site: Type of Lesion: STOMACH: CARCINOMA, PAPILLOMA); “active; positive” (Species: MONKEY, Route: INTRATRACHEAL, Dose: 3-15 MG, 1/WK, Tumor Site: Type of Lesion: LUNG: SQUAMOUS CARCINOMA); “active; positive” (Species: MONKEY, Strain/Sex: TUPAIA GLIS/MALE,FEMALE, Route: SUBCUTANEOUS, Dose: 10 MG, SINGLE DOSE, Tumor Site: Type of Lesion: INJECTION SITE: SARCOMA); “active; positive” (Species: MOUSE, Route: SUBCUTANEOUS, Tumor Site: Type of Lesion: INJECTION SITE: SARCOMA); “active; positive” (Species: MOUSE, Strain/Sex: A/J/MALE, Route: INTRAPERITONEAL, Dose: 0, 10, 100 MG/KG BW IN TRICAPRYLIN ONCE AT 4-5 WK OF AGE (STUDY DURATION: 7-8 MO), Dose: 0, 10, 100 MG/KG BW IN TRICAPRYLIN ONCE AT 4-5 WK OF AGE (STUDY DURATION: 7-8 MO), Tumor Site: Type of Lesion: LUNG: TUMOR). Further, the carcinogen call was “active; positive” (Species: MOUSE, Strain/Sex: B6C3F1/FEMALE, Route: ORAL, Dose: 0, 5, 25, 100 PPM IN DIET FOR 2 YR (STUDY DURATION: 2 YR), Dose: 0, 5, 25, 100 PPM IN DIET FOR 2 YR (STUDY DURATION: 2 YR), Tumor Site: Type of Lesion: FORESTOMACH: PAPILLOMA OR CARCINOMA, ESOPHAGUS: PAPILLOMA OR CARCINOMA, TONGUE: PAPILLOMA OR CARCINOMA, Tumor Site: Type of Lesion: FORESTOMACH: PAPILLOMA OR CARCINOMA, ESOPHAGUS: PAPILLOMA OR CARCINOMA, TONGUE: PAPILLOMA OR CARCINOMA); “active; positive” (Species: MOUSE, Strain/Sex: B6C3F1/MALE, Route: INTRAPERITONEAL, Dose: 0, 0.005, 0.015 UMOL/G ONCE AT 12 DAYS OF AGE (STUDY DURATION: 10 MO), Dose: 0, 0.005, 0.015 UMOL/G ONCE AT 12 DAYS OF AGE (STUDY DURATION: 10 MO), Tumor Site: Type of Lesion: LIVER: HEPATOMA); “active; positive” (Species: MOUSE, Strain/Sex: B6C3F1/MALE, Route: INTRAPERITONEAL, Dose: 0, 125, 250, 375 UG ADMINISTERED TO 15-DAY OLD MICE ONCE (STUDY DURATION: 52 WK), Dose: 0, 125, 250, 375 UG ADMINISTERED TO 15-DAY OLD MICE ONCE (STUDY DURATION: 52 WK), Tumor Site: Type of Lesion: LIVER: TUMOR).
